The test system of this test is striatum of Parkinson's disease (PD) model (6-OHDA) mice. The experiment in a line: FSCV/SDBR measurement of tonic dopamine concentration in the striatum after levodopa infusion. Conditions: FSCV with SDBR, levodopa injected after about 15 minutes flat signal, increases for about 25 minutes, then re-saturates. It counts as in vivo. From the text:
FIGS. 8A and 8B illustrate results of measuring a neurotransmitter concentration in an in vivo experiment using the neurotransmitter concentration measuring apparatus according to an embodiment of the present disclosure. FIGS. 8A and 8B illustrate examples for confirming SDBR-based tonic dopamine measurement results, which can be confirmed through long-term measurement using standard FSCV data, through in vivo experiments by a neurotransmitter concentration measuring apparatus according to an embodiment of the present disclosure. The graphs 810 to 813 are shown to compare the results measured in the striatum of mice after levodopa infusion. To confirm the practicality of SDBR in the in vivo environment, FSCV results after levodopa infusion of the striatum of healthy mice and the striatum of Parkinson's disease (PD) model (6-OHDA) mice are shown in FIGS. 8A and 8B. Meanwhile, the graphs 810 to 813 of FIG. 8B show the results measured by FSCV in the striatum 15 minutes after levodopa was directly injected into the experimental mice, and the graphs 810 and 811 indicate that the amplitude of the dopamine peak consistently increases independent of drug infusion due to the background subtraction technique.

Consider `N[C@@H](Cc1ccc(O)c(O)c1)C(=O)O` [levodopa], for which the “estimated dopamine concentration after levodopa infusion (SDBR)” value is 72.4 nM.
